Assay results from US8173685B2, “Pleuromutilin derivatives and their use as antimicrobials” (Nabriva Therapeutics AG, priority 2007, dated 2012).
In brackets after ≈: the same amount, converted by molar mass. Like-named read-outs stand apart in the source and are kept apart here.

Key:
Type in all cases: cell-based
[1] = tested on: Staphylococcus aureus (MSSA) ATCC10390 (strain B6); assay: MIC determination according to CLSI, Staphylococcus aureus (MSSA) ATCC10390
Text: (§1) For example, the compounds of the present invention show antimicrobial, e.g. antibacterial, activity against gram positive bacteria, such as coagulase-positive and coagulase-negative Staphylococci, e.g. Staphylococcus aureus, Styphylococcus epidermis, Staphylococcus haemolyticus, Streptococci, e.g. Streptococcus pyogenes, Streptococcus pneumoniae, Streptococcus agalacticae, Enterococci, e.g. Enterococcus faecium and Moraxellaceae, e.g. Moraxella catarrhalis, Pasteurellaceae, e.g. Haemophilus influenzae, as well as against Mycoplasmactaceae, Chlamydiaceae, e.g. Chlamydia trachomatis, Chlamydia pneumoniae and obligatory anaerobes, e.g. Bacteroides fragilis, Clostridium difficile; in vitro in the Agar Dilution Test or Microdilution Test according to the Climical and Laboratory Standards Institute (CLSI, former National Committee for Clinical Laboratory Standards (NCCLS) 2006, Document M7-A7 Vol. 26, No. 2: “Methods for dilution Antimicrobial Susceptibility Tests for Bacteria that Grow Aerobically—Seventh Edition, Approved Standard”; and in the in vitro determination of the antibacterial activity against anaerobic bacteria according to National Committee for Clinical Laboratory Standards (NCCLS) VOL. 24, No. 2, M11-A5, Methods for Antimicrobal Susceptibility Testing of Anaerobic Bacteria; Approved Standard; Sixth Edition (2004) and in vivo in the septicaemic mouse model against Staphylococcus aureus.
(§2) The antibacterial activity expressed as minimal inhibitory concentration (MIC) was determined according to the approved standard reference recommendations of CLSI (former NCCLS).

[2] = tested on: Staphylococcus aureus (MSSA) ATCC29213 (strain B7); assay: MIC determination according to CLSI, Staphylococcus aureus (MSSA) ATCC29213
Text: as §1, §2

[3] = tested on: Enterococcus faecalis ATCC29212 (strain B4); assay: MIC determination according to CLSI, Enterococcus faecalis ATCC29212
Text: as §1, §2

[4] = tested on: Enterococcus faecalis ATCC51299 (strain B5); assay: MIC determination according to CLSI, Enterococcus faecalis ATCC51299
Text: as §1, §2

[5] = tested on: Moraxella catarrhalis ATCC43618 (strain B407); assay: MIC determination according to CLSI, Moraxella catarrhalis ATCC43618
Text: as §1, §2

[6] = tested on: Escherichia coli ATCC25922 (strain B1); assay: MIC determination according to CLSI, Escherichia coli ATCC25922
Text: as §1, §2

[7] = tested on: Streptococcus pneumoniae ATCC49619 (strain B11); assay: MIC determination according to CLSI, Streptococcus pneumoniae ATCC49619
Text: as §1, §2

[8] = tested on: Staphylococcus aureus, Enterococcus faecalis, Streptococcus pneumoniae, Moraxella catarrhalis and Escherichia coli; assay: Antibacterial activity (MIC) against the panel of clinical relevant bacterial pathogens
Method: as §2

[9] = Staphylococcus aureus (MSSA), ATCC10390, strain B6, read-out: MIC
[10] = Staphylococcus aureus (MSSA), ATCC29213, strain B7, read-out: MIC
[11] = ATCC29212, strain B4, read-out: MIC
[12] = ATCC51299, strain B5, read-out: MIC
[13] = ATCC43618, strain B407, read-out: MIC
[14] = ATCC25922, strain B1, read-out: MIC
[15] = ATCC49619, strain B11, read-out: MIC

## C=C[C@]1(C)C[C@@H](OC(=O)CSc2cccc(CNC(=O)[C@H]3CCCCN3)c2)[C@]2(C)C(C)CCC3(CCC(=O)C32)[C@@H](C)[C@@H]1O (stereo partly drawn) [Example 1, 14-O-[(3-{[((R)-Piperidine-2-carbonyl)-amino]-methyl}-phenylsulfanyl)-acetyl]-mutilin]
[1]; [9]
  MIC: ≤ 0.0125 µg/mL
[2]; [10]
  MIC: ≤ 0.0125 µg/mL
[3]; [11]
  MIC: 1.6 µg/mL (≈ 2.62 µM)
[4]; [12]
  MIC: 1.6 µg/mL (≈ 2.62 µM)
[5]; [13]
  MIC: 0.0125 µg/mL (≈ 0.0205 µM)
[6]; [14]
  MIC: 12.8 µg/mL (≈ 21 µM)
[7]; [15]
  MIC: ≤ 0.0025 µg/mL
[8]; against at least one of the strains shown in Table 1
  factor by which MICs are lower than the MICs of examples 39-41: ≥ 2
[8]; in vitro, S. aureus, E. faecalis, S. pneumoniae, M. catarrhalis, E. coli
  activity against the clinical relevant bacterial pathogens (in words): very good activity

## C=C[C@]1(C)C[C@@H](OC(=O)CSc2cccc(C)c2)[C@]2(C)C(C)CCC3(CCC(=O)C32)[C@@H](C)[C@@H]1O (stereo partly drawn) [Example 39, 14-O-[(3-Methyl-phenylsulfanyl)-acetyl]-mutilin]
[1]; [9]
  MIC: 0.025 µg/mL (≈ 0.0516 µM)
[2]; [10]
  MIC: 0.05 µg/mL (≈ 0.103 µM)
[3]; [11]
  MIC: > 6.4 µg/mL
[4]; [12]
  MIC: > 6.4 µg/mL
[5]; [13]
  MIC: 0.0125 µg/mL (≈ 0.0258 µM)
[6]; [14]
  MIC: > 6.4 µg/mL
[7]; [15]
  MIC: 0.16 µg/mL (≈ 0.33 µM)

## C=C[C@]1(C)C[C@@H](OC(=O)COc2cccc(C)c2)[C@]2(C)[C@H](C)CC[C@]3(CCC(=O)[C@H]32)[C@@H](C)[C@@H]1O [Example 40, 14-O-[(3-Methyl-phenoxy)-acetyl]-mutilin]
[1]; Staphylococcus aureus
  MIC: 0.05 µg/mL (≈ 0.107 µM)
[2]; Staphylococcus aureus
  MIC: 0.05 µg/mL (≈ 0.107 µM)
[3]; ATCC29212
  MIC: > 6.4 µg/mL
[4]; ATCC51299
  MIC: > 6.4 µg/mL
[5]; ATCC43618
  MIC: 0.0125 µg/mL (≈ 0.0267 µM)
[6]; ATCC25922
  MIC: > 6.4 µg/mL
[7]; ATCC49619
  MIC: 0.64 µg/mL (≈ 1.37 µM)

## CC[C@]1(C)C[C@@H](OC(=O)COc2cccc(C)c2)[C@]2(C)C(C)CCC3(CCC(=O)C32)[C@@H](C)[C@@H]1O (stereo partly drawn) [Example 41, 14-O-[(3-Methyl-phenoxy)-acetyl]-19,20-dihydromutilin]
[1]; Staphylococcus aureus
  MIC: 0.05 µg/mL (≈ 0.106 µM)
[2]; Staphylococcus aureus
  MIC: 0.1 µg/mL (≈ 0.212 µM)
[3]; ATCC29212
  MIC: > 6.4 µg/mL
[4]; ATCC51299
  MIC: > 6.4 µg/mL
[5]; ATCC43618
  MIC: 0.025 µg/mL (≈ 0.0531 µM)
[6]; ATCC25922
  MIC: > 6.4 µg/mL
[7]; ATCC49619
  MIC: > 0.64 µg/mL
